In assay [1] the test system is CBI-2-elicited feeding motor programs. Put plainly: CBI-2-elicited feeding motor programs in isolated cerebral and buccal ganglia. Further details: species or system Aplysia californica. The settings on record: for B8 activity (frequency) during retraction: 10^-6 M and 10^-5 M; for Feeding program effect, summary grade: Table S1 summary in words. How it is done:
To explore the neural basis of the behavioral effects of apCCKs, we examined their modulation of feeding-motor programs in isolated ganglia. All eight forms of apCCKs were tested on programs induced by CBI-2, a command-like interneuron that is active during food-elicited feeding behavior[56] and provides potent excitatory inputs to buccal central pattern generator (CPG) interneurons,[54],[77] orchestrating ingestive motor programs (Figure S23A). Stable single-cycle motor programs were evoked by stimulating CBI-2 at 8–10 Hz throughout the protraction phase with a 90-s intertrial interval. Two concentrations, 10^−6 M and 10^−5 M, of apCCKs were tested.
(§1) Intracellular and extracellular recordings were made as described previously.[57]–[59],[61],[151] To prevent movements of ganglia caused by myoactive apCCK (especially [sY8]-apCCK1 and [sY6, sY8]-apCCK1) during bath application, we treated the ganglia with 0.8% protease IX for 1–2 min prior to desheathing. Subsequently, ganglia were desheathed, transferred to a recording chamber containing ~1.5 mL of ASW (460 mM NaCl, 10 mM KCl, 11mM CaCl2, 55 mM MgCl2, and 10 mM HEPES, pH 7.6), continuously perfused at 0.3 mL/min, and maintained at 14°C–17°C. The experiments examining the effects of apCCKs on excitability of B20/B34/B61/62/B65/B64 neurons were performed in a high divalent saline (368 mM NaCl, 8 mM KCl, 13.8 mM CaCl2, 115 mM MgCl2, and 10 mM HEPES, pH 7.6), which increases the spiking threshold of neurons and therefore curtails polysynaptic influences. Intracellular recordings were obtained using 5–10 MΩ sharp microelectrodes filled with an electrolyte (0.6 M K2SO4 plus 60 mM KCl). Extracellular recordings were acquired from polyethylene suction electrodes. Grass S88 and WPI Pulsemaster A300 stimulators were used to provide timing signals for intracellular and extracellular stimulation. To determine the effects of various forms of apCCKs on Aplysia feeding programs, we performed experiments with the cerebral and buccal ganglia. Freshly made apCCK solution in ASW was perfused into the recording chamber. Feeding-motor programs were elicited by stimulation of command-like neuron CBI-2 at 8–10 Hz or stimulation of the EN at 2 Hz, 3 ms, 15 V, and were monitored by bursting activity of the I2 nerve of the buccal ganglion.[58],[59],[61] Typically, we recorded from motor neuron B8, and one interneuron, e.g., B40 or B20. To determine effects of apCCKs on synaptic strength, we stimulated presynaptic neuron, CBI-2, B34 (plus 1 nA current) or B65 at 10 Hz for 2 s for several trials and waited 1 min between each trial. The stimulation duration for each trial was set at 2 s because this allows the expression of synaptic facilitation without evoking too many spikes. Typically, the amplitude of the last EPSP at each concentration of peptides was quantified unless otherwise stated.

Assay [2] relates to Aplysia californica. In words: Feeding behavior (food intake) in intact animals after peptide injection. Type of assay: in vivo. As to conditions: for Behavioral effect (food intake), summary grade: Table S1 summary in words; for Food intake (seaweed consumed in a single meal): food-deprived animals. From the text: To explore the role of apCCKs as satiety signals in mollusks, we examined their effects on food intake. […] The remaining four forms had no impact (Figure S9). Moreover, [sY6, sY8]-apCCK1 slowed food consumption (Figure 2E), which could stem, in part, from a shift from ingestive to egestive patterns as the meal progressed. [sY6, sY8]-apCCK1 also extended the duration to consume one strip of seaweed compared to controls (Figure 2F), further mimicking natural satiety.
Behavioral experiments were conducted in two batches, each using animals from separate shipments. In the first batch (Figure 2), animals were larger, with an average body weight of 93.3 ± 4.8 g, and were food-deprived for 7 days prior to testing. In the second batch (Figure S9), animals were smaller (average weight: 70.6 ± 4.0 g) and were food-deprived for 5 days to account for their reduced size. In each experiment, two weight-matched animals were housed in separate round net cages (17 cm diameter and 17 cm height) that were placed in a 500 L tank filled with circulating aerated ASW (14°C–16°C). To ensure that the animals were responsive to food, they were first pretested with a small piece of seaweed. After this pretest, in each pair, one animal was injected (into the hemocoel using a syringe needle) with apCCKs freshly dissolved in 1.5 mL ASW, whereas the other was injected with 1.5 mL of ASW. Three minutes later, the feeding session commenced. Animals were hand-fed seaweed (Shirako, Tokyo, Japan) cut in 1 × 10 cm strips, weighing ~0.1 g, increasing 10-fold when hydrated. This hand-feeding approach has been used in prior study of Aplysia feeding behavior.[146],[147] The consumed seaweed amount was converted to hydrated weight and normalized to the animal’s body weight. Each strip of seaweed was delivered to the mouth area with forceps. Feeding was terminated after 1 h or when animals stopped ingesting seaweed for 3 min.

The subject of assay [3] is EN-elicited feeding motor programs. In words: EN-elicited egestive motor programs in isolated ganglia. Further details: species or system Aplysia californica. The settings on record: EN stimulation at 2 Hz. From the text: Although protraction (B61/62) activity is inhibited by apCCKs during CBI-2-elicited programs, this might not be the case for the egestive motor programs elicited by EN stimulation, which could contribute positively to satiety. We therefore examined [sY8]-apCCK1 effects on B61/62 activity in EN-elicited egestive motor programs. […] This difference may be explained in part by effects on the interneuron B65, which is strongly active during EN programs but not during CBI-2 programs,[56],[81]–[83] whereas the opposite is true for B34.[54],[61] B65 elicits fast excitatory postsynaptic potentials (EPSPs) in B61/62.[81] [sY8]-apCCK1 increased B65 excitability (Figures 6M and 6N) and EPSPs from B65 to B61/62 (Figures 6O and 6P), which could account for the increase of B61/62 activity during EN programs.
Intracellular and extracellular recordings were made as described previously.[57]–[59],[61],[151] […] Feeding-motor programs were elicited by stimulation of command-like neuron CBI-2 at 8–10 Hz or stimulation of the EN at 2 Hz, 3 ms, 15 V, and were monitored by bursting activity of the I2 nerve of the buccal ganglion.[58],[59],[61] Typically, we recorded from motor neuron B8, and one interneuron, e.g., B40 or B20. […] Typically, the amplitude of the last EPSP at each concentration of peptides was quantified unless otherwise stated.

In assay [4] the test system is B20, B40, B64, B34, B61/62, B65 neurons and CBI-2 synapses. Put plainly: Electrophysiology: excitability and synaptic strength of identified feeding-circuit neurons. Further details: species or system Aplysia californica.
From the text: To characterize apCCK mechanisms of action, we investigated their effects on synaptic and intrinsic plasticity of key circuit elements. […] However, [sY8]-apCCK1 decreased synaptic strength between CBI-2 and B40 (Figures S26C and S26D).
as §1

[5] abbreviates: injection into hemocoel of apCCK solutions (10^-7 M or 10^-6 M) vs ASW.
The mark [6] stands for this setting: presynaptic stimulation 10 Hz for 2 s, last EPSP.

The structures appear in SMILES notation. Non-standard residues stand in square brackets, D forms with d. Residues, ends and D or L forms follow the SMILES beside them. sY = N[C@@H](Cc1ccc(OS(=O)(=O)O)cc1)C(=O)O; pGlu = O=C1CC[C@@H](C(=O)O)N1

As for `CC(C)C[C@H](NC(=O)CNC(=O)[C@H](Cc1ccc(OS(=O)(=O)O)cc1)NC(=O)[C@H](CC(=O)O)NC(=O)[C@H](Cc1ccc(OS(=O)(=O)O)cc1)NC(=O)[C@H](CO)NC(=O)[C@H](Cc1c[nH]c2ccccc12)NC(=O)[C@H](C)NC(=O)CNC(=O)[C@@H]1CCC(=O)N1)C(=O)NCC(=O)NCC(=O)NCC(=O)N[C@@H](CCCNC(=N)N)C(=O)N[C@@H](Cc1ccccc1)C(N)=O` [[sY6, sY8]-apCCK1] ([pGlu]GAWS[sY]D[sY]GLGGGRF-NH2), the “Protraction duration of CBI-2 programs” value in assay [1] (10^-6 M and 10^-5 M tested) is reported as “shortened”. Moreover, in assay [1] (CBI-2 programs), the “B8 activity (frequency) during retraction” value is “reduced”. For the same compound, the “Feeding program effect, summary grade” value in assay [1] was “Strong”. For the same compound, the “Behavioral effect (food intake), summary grade” value (“Behavioral effect (food intake)” for short) in assay [2] is “Strong”. The “Time to consume one strip of seaweed (average of the first three strips)” value in assay [2] (injected with 10^-8 M, compared with control animals) is recorded as “took longer”. Further, in assay [2] (setting [5]), the “Food intake (seaweed consumed in a single meal)” value is listed as “strongly reduced food intake”.

As for `CC(C)C[C@H](NC(=O)CNC(=O)[C@H](Cc1ccc(O)cc1)NC(=O)[C@H](CC(=O)O)NC(=O)[C@H](Cc1ccc(OS(=O)(=O)O)cc1)NC(=O)[C@H](CO)NC(=O)[C@H](Cc1c[nH]c2ccccc12)NC(=O)[C@H](C)NC(=O)CNC(=O)[C@@H]1CCC(=O)N1)C(=O)NCC(=O)NCC(=O)NCC(=O)N[C@@H](CCCNC(=N)N)C(=O)N[C@@H](Cc1ccccc1)C(N)=O` [[sY6]-apCCK1] ([pGlu]GAWS[sY]DYGLGGGRF-NH2), the “Feeding program effect, summary grade” value in assay [1] is listed as “No effect”. The “Behavioral effect (food intake)” value in assay [2] was “No effect”. Moreover, the “Food intake (seaweed consumed in a single meal)” value in assay [2] (setting [5]) was “did not influence feeding”.

Turning to `CC(C)C[C@H](NC(=O)CNC(=O)[C@H](Cc1ccc(OS(=O)(=O)O)cc1)NC(=O)[C@H](CC(=O)O)NC(=O)[C@H](Cc1ccc(O)cc1)NC(=O)[C@H](CO)NC(=O)[C@H](Cc1c[nH]c2ccccc12)NC(=O)[C@H](C)NC(=O)CNC(=O)[C@@H]1CCC(=O)N1)C(=O)NCC(=O)NCC(=O)NCC(=O)N[C@@H](CCCNC(=N)N)C(=O)N[C@@H](Cc1ccccc1)C(N)=O` [[sY8]-apCCK1] ([pGlu]GAWSYD[sY]GLGGGRF-NH2), in assay [1] (10^-6 M), the “B20 firing frequency in CBI-2 programs” value was “increased” and the “Type of CBI-2-elicited motor program” value was “shifted ingestive programs to egestive”. For the same compound, in assay [1] (10^-6 M and 10^-5 M tested), the “B34 frequency in CBI-2 programs” value is “decreased”, the “B40 firing frequency in CBI-2 programs” value was “decreased”, the “B61/62 frequency in CBI-2 programs” value is listed as “decreased” and the “Protraction duration of CBI-2 programs” value is listed as “shortened”. In addition, the “Retraction duration of CBI-2 programs” value in assay [1] (10^-6 M and 10^-5 M tested) is given as “shortened”. In addition, in assay [1] (CBI-2 programs, 10^-5 M), the “B8 activity during protraction” value is “decreased”. Moreover, the “B8 activity during protraction” value in assay [1] (CBI-2 programs, 10^-6 M) was “significantly increased”. Also, the “B8 activity (frequency) during retraction” value in assay [1] (CBI-2 programs) is listed as “significantly decreased”. Also, the “Firing frequency of the I2 nerve” value in assay [1] (CBI-2 programs, 10^-6 M and 10^-5 M tested) was “significantly decreased”. In addition, the “Feeding program effect, summary grade” value in assay [1] is “Strongest”. Further, in assay [2], the “Behavioral effect (food intake)” value is reported as “Strongest”. The “Food intake (seaweed consumed in a single meal)” value in assay [2] (injection into hemocoel, 10^-8 M or 10^-7 M) is listed as “completely inhibiting consumption”. Moreover, the “B61/62 firing frequency in EN-elicited programs” value in assay [3] is recorded as “increased”. Moreover, in assay [4], the B40 excitability entry is on record as “enhanced”; the “Synaptic strength between CBI-2 and B40” value is given as “decreased”. For the same compound, in assay [4] (10^-6 M, high divalent saline), the B20 excitability result is “significantly enhanced”. Also, the “EPSPs from B65 to B61/62” value in assay [4] (first EPSP of each stimulation trial) is “increased”. For the same compound, in assay [4] (high divalent saline), the B34 excitability entry is on record as “enhanced”, the B61/62 excitability entry was “enhanced”, the B64 excitability entry is listed as “enhanced” and the B65 excitability result is “increased”. For the same compound, the B20 excitability entry in assay [4] (higher concentration (10^-5 M), high divalent saline) is “no significant effect”. Further, in assay [4] (setting [6]), the “Synaptic strength between B34 and B61/62” value was “decreased”; the “Synaptic strength between CBI-2 and B34” value is recorded as “decreased”; the “Synaptic strength between CBI-2 and B61/62” value was “decreased”.

For the compound `CC(C)C[C@H](NC(=O)CNC(=O)[C@H](Cc1ccc(O)cc1)NC(=O)[C@H](CC(=O)O)NC(=O)[C@H](Cc1ccc(O)cc1)NC(=O)[C@H](CO)NC(=O)[C@H](Cc1c[nH]c2ccccc12)NC(=O)[C@H](C)NC(=O)CNC(=O)[C@@H]1CCC(=O)N1)C(=O)NCC(=O)NCC(=O)NCC(=O)N[C@@H](CCCNC(=N)N)C(=O)N[C@@H](Cc1ccccc1)C(N)=O` [apCCK1] ([pGlu]GAWSYDYGLGGGRF-NH2), in assay [1], the “Feeding program effect, summary grade” value is on record as “No effect”. Besides, the “Behavioral effect (food intake)” value in assay [2] is recorded as “No effect”. Besides, in assay [2] (setting [5]), the “Food intake (seaweed consumed in a single meal)” value is “did not influence feeding”.
